Data published in patent EP0252983B1, “SALTS OF N-(VINYLOXIETHYL)DITHIOCARBAMIC ACID, METHOD OF OBTAINING THEREOF AND […] ON THEM” (priority 1985, dated 1987).

Columns and labels:
[1] = system: Geotrichum candidum Link; test: Mycelial growth inhibition on agar (contact activity); assay type: cell-based; details: Tabelle 11
Method: (§1) Die Prüfungen werden nach dem Verfahren zur Ermittlung der Kontaktaktivität durchgeführt. Man verwendet das in Wasser gelöste Kalium-N-(vinyloxyäthyl)dithiocarbamat, führt es in ein Nährmedium ein und vergießt auf Petri-Schalen. Nach 24 Stunden wird mit Pilzmyzelium nach einem Stichverfahren geimpft. Dann temperiert man die Schalen innerhalb von 5 Tagen bei einer zwischen 24 und 26 °C liegenden Temperatur und mißt den Durchmesser von Pilzkolonien, ermittelt den Prozentsatz der Hemmung des Myzelwachstums (S) ausgehend von Angaben am 5. Tag nach der Abbott-Formel [drawing 13] worin dc für den Durchmesser der Pilzkolonien, de für den Durchmesser von Pilzkolonien in der Schale stehen, wo ein die zu prüfenden Stoffe enthaltendes Medium vorhanden ist. Dieses Verfahren zur Ermittlung der mikrobiologischen Aktivität ist in anderen Beispielen verwendet.
(§2) Die Pilzkulturen werden auf Würzeagar gezüchtet. Ergebnisse, erhalten bei der Prüfung der fungiziden Aktivität gegen reine Kulturen von Mikroorganismen, welche Bioschädigungen hervorrufen, sind in der Tabelle 1 dargestellt.

[2] = system: Penicillium charlesii; test: as above; assay type: cell-based; details: Tabelle 11
Method: as §1, §2

[3] = system: Penicillium chrysogenum; test: as above; assay type: cell-based; details: Tabelle 11
Method: as §1, §2

[4] = system: Walrotiela subiculesa; test: as above; assay type: cell-based; details: Tabelle 11
Method: as §1, §2

[5] = system: Bacillus; test: Bactericidal activity on agar (concentration of complete growth inhibition); assay type: cell-based; details: % bezogen auf den Wirkstoff; am 5. Tag
Method: (§3) Geprüft wird die bakterizide Aktivität von Kalium-, Natrium-, Zink- und Kupfersalzen der N-(Vinyloxyäthyl)dithiocarbamidsäure gegen Bakterien der Gattungen Bacillus, Micrococcus, Pseudomonas, Escherichia und Xantomonas.
(§4) Man stellt wäßrige Stofflösungen verschiedener Konzentration her, die so berechnet werden, daß die Stoffkonzentration in der Petri-Schale bei der Gabe von 1 ml Lösung in das geschmolzene Nährmedium (45 bis 50 °C) zwischen 0,003 und 25 % (bezogen auf den Wirkstoff) schwankt. Nach 18 bis 24 Stunden bringt man auf die Oberfläche des Nährmediums 0,1 ml wäßrige Suspension eintägiger reiner Kulturen von Bakterien auf und verteilt sie gleichmäßig. In Kontrollschalen verteilt sich 0,1 ml Wasser über die Oberfläche des Nährmediums. Die Inkubation erfolgt bei 37 °C innerhalb von 5 Tagen. Die Wirksamkeit der Stoffe wird nach dem Auftreten des Bakterienwachstums auf der Oberfläche des Nährmediums eingeschätzt. Die Prüfergebnisse sind in der Tabelle 13 dargestellt.

[6] = system: Escherichia; test: as above; assay type: cell-based; details: % bezogen auf den Wirkstoff; am 5. Tag
Method: as §3, §4

[7] = system: Micrococcus; test: as above; assay type: cell-based; details: % bezogen auf den Wirkstoff; am 5. Tag
Method: as §3, §4

[8] = system: Pseudomonas; test: as above; assay type: cell-based; details: % bezogen auf den Wirkstoff; am 5. Tag
Method: as §3, §4

[9] = system: Xantomonas; test: as above; assay type: cell-based; details: % bezogen auf den Wirkstoff; am 5. Tag
Method: as §3, §4

[10] = Solubility in water (descriptive); assay type: physicochemical
[11] = Storage stability (descriptive); assay type: physicochemical
[12] = system: Cladosporium resinae; test: Mycelial growth inhibition on agar (contact activity); assay type: cell-based; details: Tabelle 11
[13] = system: Cladosporium cladosporioides; test: as above; assay type: cell-based; details: Tabelle 11
[14] = system: Acremonium cowum; test: as above; assay type: cell-based; details: Tabelle 11
[15] = system: Acremonium charticola; test: as above; assay type: cell-based; details: Tabelle 11
[16] = Konzentration des Präparats 0,01 %
[17] = Konzentration des Präparats 0,02 %
[18] = Konzentration des Präparats 0,05 %
[19] = Konzentration des Präparats 0,10 %
[20] = Konzentration des Präparats 0,005 %

Q: With “Kupfer-bis-(N-vinyloxyäthyldithiocarbamat)” as the substance, how does the Myzelhemmung in % [1, 16] read?
A: 100%

Q: And the Myzelhemmung in % [1, 17]?
A: 100%

Q: And the Myzelhemmung in % [1, 18]?
A: 100%

Q: And the Myzelhemmung in % [1, 19]?
A: 100%

Q: What about the Myzelhemmung in % [1, 20] of the same substance?
A: 100%

Q: And the Myzelhemmung in % [2, 16]?
A: 30%

Q: And the Myzelhemmung in % [2, 17]?
A: 80%

Q: What about the Myzelhemmung in % [2, 18] of the same substance?
A: 100%

Q: What about the Myzelhemmung in % [2, 19] of the same substance?
A: 100%

Q: And the Myzelhemmung in % [2, 20]?
A: 15%

Q: What about the Myzelhemmung in % [3, 16] of the same substance?
A: 25%

Q: And the Myzelhemmung in % [3, 17]?
A: 36%

Q: What about the Myzelhemmung in % [3, 18] of the same substance?
A: 70%

Q: What about the Myzelhemmung in % [3, 19] of the same substance?
A: 100%

Q: What about the Myzelhemmung in % [3, 20] of the same substance?
A: 10%

Q: What about the Myzelhemmung in % [4, 16] of the same substance?
A: 0%

Q: And the Myzelhemmung in % [4, 17]?
A: 10%

Q: And the Myzelhemmung in % [4, 18]?
A: 37%

Q: And the Myzelhemmung in % [4, 19]?
A: 100%

Q: What about the Myzelhemmung in % [4, 20] of the same substance?
A: 0%

Q: And the “Konzentrationen, welche das Bakterienwachstum völlig (100 %) hemmen” value (“Konzentrationen … (100 %) hemmen” below) [5]?
A: 0,15%

Q: What about the “Konzentrationen … (100 %) hemmen” value [6] of the same substance?
A: 0,15%

Q: And the “Konzentrationen … (100 %) hemmen” value [7]?
A: 0,15%

Q: What about the “Konzentrationen … (100 %) hemmen” value [8] of the same substance?
A: 0,15%

Q: And the “Konzentrationen … (100 %) hemmen” value [9]?
A: 0,15%

Q: What about the “Löslichkeit in Wasser” value [10] of the same substance?
A: unlöslich

Q: What about the Lagerbeständigkeit [11] of the same substance?
A: lagerbeständig

Q: And the Myzelhemmung in % [12, 16]?
A: 50%

Q: What about the Myzelhemmung in % [12, 17] of the same substance?
A: 80%

Q: And the Myzelhemmung in % [12, 18]?
A: 90%

Q: And the Myzelhemmung in % [12, 19]?
A: 100%

Q: And the Myzelhemmung in % [12, 20]?
A: 34%

Q: And the Myzelhemmung in % [13, 16]?
A: 36%

Q: What about the Myzelhemmung in % [13, 17] of the same substance?
A: 65%

Q: What about the Myzelhemmung in % [13, 18] of the same substance?
A: 80%

Q: And the Myzelhemmung in % [13, 19]?
A: 100%

Q: What about the Myzelhemmung in % [13, 20] of the same substance?
A: 15%

Q: What about the Myzelhemmung in % [14, 16] of the same substance?
A: 100%

Q: What about the Myzelhemmung in % [14, 17] of the same substance?
A: 100%

Q: And the Myzelhemmung in % [14, 18]?
A: 100%

Q: And the Myzelhemmung in % [14, 19]?
A: 100%

Q: And the Myzelhemmung in % [14, 20]?
A: 100%

Q: What about the Myzelhemmung in % [15, 16] of the same substance?
A: 96%

Q: And the Myzelhemmung in % [15, 17]?
A: 100%

Q: What about the Myzelhemmung in % [15, 18] of the same substance?
A: 100%

Q: What about the Myzelhemmung in % [15, 19] of the same substance?
A: 100%

Q: What about the Myzelhemmung in % [15, 20] of the same substance?
A: 70%
